Measurements reported in ChEMBL document CHEMBL1129842, “ATP-sensitive potassium channel openers: Synthesis and antihypertensive activity of 4-bicyclyloxybenzopyrans” (1997).

Legend:
[1] = system: Rattus norvegicus; test: Antihypertensive activity in spontaneously hypertensive rats (SHR''s) was evaluated after oral administration; ED50 mmHg; assay type: functional
[2] = system: Rattus norvegicus; test: Potassium channel opening activity is expressed as area under curve (AUC), determined in spontaneously hypertensive rats (SHR's) after oral administration; assay type: functional
[3] = Rattus norvegicus, po, read-out: ED50

## CN1N=C(OC2c3cc([N+](=O)[O-])ccc3OC(C)(C)C2O)C2CC2C1=O (racemic)
[1]; [3]
  ED50: 0.049 mg/kg

## CN1N=C(OC2c3ccc([N+](=O)[O-])cc3OC(C)(C)C2O)C2CC2C1=O (racemic)
[1]; [3]
  ED50: > 0.3 mg/kg

## CN1N=C(O[C@@H]2c3cc(C#N)ccc3OC(C)(C)[C@@]2(C)O)[C@@H]2C[C@@H]2C1=O
[2]
  ECAUC0.2: 0.021 µM
[1]; [3]
  ED50: 0.0023 mg/kg

## CN1N=C(O[C@@H]2c3cc(C#N)ccc3OC(C)(C)[C@H]2O)C2C(C1=O)C2(C)C (mixture of isomers)
[1]; [3]
  ED50: > 0.1 mg/kg

## Cn1nc(O[C@@H]2c3cc(C#N)ccc3OC(C)(C)[C@H]2O)ccc1=O
[2]
  ECAUC0.2: 0.16 µM
[1]; [3]
  ED50: 0.0064 mg/kg

## CC1(C)Oc2ccc(C#N)cc2[C@@H](N2CCCC2=O)[C@@H]1O [LEVCROMAKALIM]
[2]
  ECAUC0.2: 1.6 µM
[1]; [3]
  ED50: 0.14 mg/kg

## CN1N=C(OC2c3cc(C#N)ccc3OC(C)(C)C2O)C2CC2C1=O (racemic; form 2)
[2]
  ECAUC0.2: 0.39 µM
[1]
  ED50: 0.047 mg/kg

## Cn1nc(OC2c3cc(C#N)ccc3OC(C)(C)C2O)c2ccccc2c1=O (racemic)
[1]; [3]
  ED50: > 10 mg/kg

## CN1N=C(OC2c3cc(C#N)ccc3OC(C)(C)C2(C)O)C2CC2C1=O (racemic)
[1]; [3]
  ED50: 0.0042 mg/kg

## CN1N=C(N[C@@H]2c3cc(C#N)ccc3OC(C)(C)[C@H]2O)[C@@H]2C[C@@H]2C1=O
[1]; [3]
  ED50: 0.0065 mg/kg

## Cn1nc(OC2c3cc(C#N)ccc3OC(C)(C)C2O)c2c(c1=O)CCC2 (racemic)
[1]; [3]
  ED50: 0.86 mg/kg

## CN1N=C(O[C@@H]2c3cc(C#N)ccc3OC(C)(C)[C@H]2O)C2CC2C1=O (single isomer, unassigned; (-))
[2]
  ECAUC0.2: 0.18 µM
[1]; [3]
  ED50: 0.029 mg/kg

## CN1N=C(O[C@@H]2c3cc(C(F)(F)C(F)(F)F)ccc3OC(C)(C)[C@H]2O)[C@@H]2C[C@@H]2C1=O (racemic)
[1]; [3]
  ED50: 0.047 mg/kg

## CN1N=C(OC2c3cc(C#N)ccc3OC(C)(C)C2O)C2CC2C1=O (racemic; form 1)
[1]
  ED50: >1 mg/kg

## CC1(C)Oc2ccc(C#N)cc2C(N2CCCC2=O)C1O (racemic) [CROMAKALIM]
[2]
  ECAUC0.2: 2.8 µM
[1]; [3]
  ED50: 0.31 mg/kg

## Cn1nc(OC2c3cc(C#N)ccc3OC(C)(C)C2O)ccc1=O (racemic)
[2]
  ECAUC0.2: 0.25 µM
[1]; [3]
  ED50: 0.023 mg/kg
